The subject of one data set is Francisella philomiragia. The conditions noted are these: tested at 50 μM; cited from earlier work.
Another data set has as its system F. novicida. The conditions noted are these: tested at 50 μM; cited from earlier work.
The next data set deals with E. coli YD626 (parent). Briefly: Colistin potentiation, broth microdilution, E. coli YD626 parent. It is filed as cell-based. From the text: (§1) Broth microdilution method for antibiotic potentiation.
The test system of another data set is K. pneumoniae C3. The data set can be described thus: Colistin potentiation, chromosomally colistin resistant K. pneumoniae C3. It is filed as cell-based.
Source text: as §1

Data set [1] concerns A. baumannii 17978 +mcr-1. The data set can be described thus: Colistin potentiation, broth microdilution, A. baumannii 17978 +mcr-1. The note with it: no adjuvant. For orientation: In broth dilution the organism is exposed to a series of concentrations in liquid medium.
The subject of data set [2] is A. baumannii 17978 (parent). Briefly: Colistin potentiation, broth microdilution, A. baumannii 17978 parent. It is filed as cell-based. The conditions noted are these: no adjuvant.
Source text: as §1

Data set [3] concerns K. pneumoniae 2210291 +mcr-1. Briefly: Colistin potentiation, broth microdilution, K. pneumoniae 2210291 +mcr-1. The note with it: no adjuvant.
In the next data set the test system is A. baumannii 3941. The data set can be described thus: Colistin potentiation, chromosomally colistin resistant A. baumannii 3941. It is filed as cell-based.
Source text: as §1

The next data set concerns K. pneumoniae B9. The data set can be described thus: Colistin potentiation, chromosomally colistin resistant K. pneumoniae B9. It is filed as cell-based.
Source text: as §1

Data set [4] concerns K. pneumoniae 2210291 (parent). The data set can be described thus: Colistin potentiation, broth microdilution, K. pneumoniae 2210291 parent. It is filed as cell-based. The conditions noted are these: no adjuvant.
Source text: as §1

The subject of another data set is E. coli YD626 +mcr-1. Briefly: Colistin potentiation, broth microdilution, E. coli YD626 +mcr-1. The note with it: no adjuvant.
In data set [5] the test system is A. baumannii 4106. The data set can be described thus: Colistin potentiation, chromosomally colistin resistant A. baumannii 4106. It is filed as cell-based.
Source text: as §1

Data set [6] concerns A. baumannii 4106 infection in G. mellonella larvae. Briefly: Galleria mellonella model of A. baumannii infection. It is filed as in vivo. The conditions noted are these: 6×10^5 CFU A. baumannii 4106, day 4. On the procedure: Galleria mellonella Assay. G. mellonella larvae (Speedy Worm, Alexandria, Minn.) were used within 10 days of shipment from the vendor. After reception of worms, larvae were kept in the dark at room temperature for at least 24 h. before infection. Larvae weighing between 200 to 300 mg were used in the survival assay. Using a 10 μL glass syringe (Hamilton, Reno, Nev.) fitted with a 30 G needle (Exel International, St. Petersburg, Fla.), a 5 μL solution of the desired compound(s) and concentration(s) were injected into the last left proleg. Colistin was dosed at 50 mg/kg dissolved in DI water, 2-AIs at 50 mg/kg dissolved in DMSO, tigecycline at 100 mg/kg dissolved in DMSO, and DMSO was injected for a negative control. For bacterial injections, 1 mL from an overnight culture of A. baumannii 4106 in Miller LB broth (Fisher Scientific U.S.) was subcultured into 9 mL Miller LB broth and incubated for an additional 3 h before use. The 10 mL solution was centrifuged and washed three times with phosphate buffer solution (PBS, Fisher Scientific U.S.) before diluting to 6×10^5 CFUs in PBS. Then, 2.5 h. after the first injection, a second 5 μL injection containing 6×10^5 CFUs of A. baumannii 4106 was injected into the second to last left proleg. Injected worms were left at room temperature in the dark while being assessed at 24 h intervals over 4 days. […] Experiment was repeated 3 times using 10 larvae per experimental group. No ethics approval was needed for G. mellonella.

For data set [7], the system named is A. baumannii 4106. The data set can be described thus: In vitro MIC of tigecycline. It is filed as cell-based. The note with it: Acinetobacter baumannii. On the procedure: Broth microdilution method for MIC determination. […] Aliquots (1 mL) were placed in culture tubes and compound was added from 10 mM stock samples in DMSO, such that compound concentration equaled highest concentration tested (200 μM). Samples were then aliquoted (200 μL) into the first wells of a 96-well plate, with all remaining wells being filled with 100 μL of initial bacterial subculture. Row one wells were mixed five times, before 100 μL was transferred to row two. […] This process was repeated until the final row had been mixed; this served to serially dilute the compound.

Data set [8] has as its system mcr-1 plasmid containing E. coli, K. pneumoniae, and A. baumannii. The data set can be described thus: Colistin potentiation stated for all three mcr-1 strains together.
In the next data set the test system is red blood cells. Briefly: Hemolysis assay. It is filed as cell-based, sheep. As to the method:
Hemolysis assay. Hemolysis assays were performed on mechanically defibrinated sheep blood (Hemostat Labs: DSB30). Defibrinated blood (1.5 mL) was placed into a microcentrifuge tube and centrifuged for 10 min at 10,000 rpm. The supernatant was then removed, and the cells were resuspended in 1 mL of phosphate-buffered saline (PBS). The suspension was centrifuged, the supernatant was removed, and cells were resuspended two additional times. The final cell suspension was then diluted 10-fold. Test compound solutions were made in PBS in small culture tubes and then added to aliquots of the 10-fold suspension dilution of blood. PBS was used as a negative control and a zero hemolysis marker. Triton X (a 1% sample) was used as a positive control serving as the 100% lysis marker. Samples were then placed in an incubator at 37° C. while being shaken at 200 rpm for one hour. After one hour, the samples were transferred to microcentrifuge tubes and centrifuged for 10 min at 10,000 rpm. The resulting supernatant was diluted by a factor of 40 in distilled water. The absorbance of the supernatant was then measured with a UV spectrometer at a 540 nm wavelength.

Data set [9] deals with chromosomally colistin resistant K. pneumoniae and A. baumannii strains. The data set can be described thus: Colistin potentiation stated for the four chromosomally colistin resistant strains together. It is filed as cell-based.
Source text: as §1

Data set [10] concerns A. baumannii 17978 +mcr-1. Briefly: Colistin potentiation with detergent (Tween 80). The conditions noted are these: adjuvant at 30 μM; 0.01% Tween 80. It is filed as cell-based. From the text:
Broth microdilution method for antibiotic potentiation with detergent.

The next data set concerns 4T1 cells. The data set can be described thus: MTT cell viability assay. It is filed as cell-based, mouse. As to the method:
MTT Cell Viability Assay. 4T1 cells (ATCC Manassas, Va.) were plated at a density of 1×10^4 cells/well in 96-well plates. (Roswell Park Memorial Institute Media 1640, Gibco, Gaithersburg, Md.) supplemented with 10% Fetal Bovine Serum (Gibco), 2 mM GlutaMAX (Gibco) and 50 μM 2-mercaptoethanol (Sigma Aldrich St. Louis, Mo.) and incubated at 37° C. under a 5% CO2 atmosphere in the dark for 18 h. Cell cultures were treated with serial dilutions of compounds in the presence or absence of 1 μg/mL colistin (3 replicates per condition) and incubated for an additional 18 hours. The following control conditions were used: media only (blank), 1% Triton X100 (0% cell viability), 0.5% DMSO (100% cell viability). Each condition was then treated with 10% volume of a 5 mg/mL solution of 3-(4,5-dimethylthiazol-2-yl)-2,5-diphenyltetrazolium bromide (MTT) (Sigma Aldrich) in sterile filtered 1× phosphate buffered saline (PBS) and incubated for 2 h. at 37° C. in 5% CO2, after which the media was aspirated and the resulting formazan crystals were resuspended in 100 μL acidified (4 mM HCl) isopropanol. The 96-well plate was then read at 540 nm on a FLUOstar Optima (BMG Labtech Cary, N.C.) microplate reader. Cell viability was calculated as a percentage using the two previously mentioned controls.
On the technique in general: Tetrazolium assays rely on reduction of a dye to a coloured formazan, in cell work by metabolically active cells.

The term MIC denotes the smallest concentration in the dilution series that meets the test's criterion for growth inhibition.

Entries after “also recorded” stand apart in the source; their conditions may differ. Some results are limits rather than exact numbers.

Consider `CCCCc1ccc(C(=O)NCCc2c[nH]c3ccccc23)cc1` [Compound 1a], for which the “fold reduction in the colistin MIC” value with Francisella philomiragia is 32 fold; in the data set with F. novicida, “two-fold”. Further, the “fold reduction of colistin MIC” value in the data set with E. coli YD626 (parent) (adjuvant at 50 μM, parent E. coli strain) was 16 fold.

In the case of colistin [reference compound], the “colistin MIC, colistin alone” value in the data set on K. pneumoniae C3 (no adjuvant) amounted to 512 µg/mL; in data set [1] it was 16 µg/mL; in data set [2], 2 µg/mL; with E. coli YD626 (parent) (no adjuvant, E. coli YD626 parent), 1 µg/mL; in data set [3], 16 µg/mL; with A. baumannii 3941 (no adjuvant), 512 µg/mL. The “colistin MIC, colistin alone” value in the data set with K. pneumoniae B9 (no adjuvant, K. pneumoniae B9) turned out to be 512 µg/mL; in data set [4] it was 1 µg/mL; in the data set on E. coli YD626 +mcr-1 it was 8 µg/mL; in the data set with A. baumannii 4106 [5] (no adjuvant) it was 1024 µg/mL. Moreover, in data set [6] (50 mg/kg), the “survival of inoculated worms after 4 days, monotherapy” value (“survival … monotherapy” for short) amounted to 7%.

Take `CN(C)c1cc(NC(=O)CNC(C)(C)C)c(O)c2c1C[C@H]1C[C@H]3[C@H](N(C)C)C(O)=C(C(N)=O)C(=O)[C@@]3(O)C(O)=C1C2=O` [tigecycline, reference compound]: the MIC in the data set with A. baumannii 4106 [7] turned out to be 8 µg/mL. Further, the “survival … monotherapy” value in data set [6] (100 mg/kg) worked out at 20%.

On to `O=C(NCCc1c[nH]c2ccc(Br)cc12)Nc1cc(Cl)c(Br)c(Cl)c1` [Compound 9e, 1-(2-(5-bromo-1H-indol-3-yl)ethyl)-3-(4-bromo-3,5-dichlorophenyl)urea], for which the “colistin MIC with adjuvant” value turned out to be 2 µg/mL in the data set with K. pneumoniae C3 (adjuvant at 7.5 μM); 2 µg/mL in the data set on K. pneumoniae C3 (adjuvant at 8 μM); 1 µg/mL with K. pneumoniae C3 (adjuvant at 10 μM); 0.5 µg/mL in the data set with K. pneumoniae C3 (adjuvant at 15 μM); 0.5 µg/mL with K. pneumoniae C3 (adjuvant at 20 μM); 16 µg/mL in the data set with A. baumannii 3941 (adjuvant at 7.5 μM). Moreover, the “colistin MIC with adjuvant” value in the data set with A. baumannii 3941 (adjuvant at 10 μM) came out at 4 µg/mL; with A. baumannii 3941 (adjuvant at 15 μM), 4 µg/mL; in the data set on A. baumannii 3941 (adjuvant at 20 μM), 2 µg/mL; with K. pneumoniae B9 (adjuvant at 5 μM, K. pneumoniae B9), 0.5 µg/mL; in the data set with A. baumannii 4106 [5] (adjuvant at 7.5 μM), 1 µg/mL; with A. baumannii 4106 [5] (adjuvant at 8 μM), 4 µg/mL. Moreover, the results for the “colistin MIC with adjuvant” value in the data set on A. baumannii 4106 [5] (adjuvant at 10 μM), in the data set on A. baumannii 4106 [5] (adjuvant at 15 μM) and in the data set on A. baumannii 4106 [5] (adjuvant at 20 μM) were 1 µg/mL, 0.5 µg/mL and 0.5 µg/mL, respectively. Also, the “resensitization to colistin, all three mcr-1 containing strains” value in data set [8] (adjuvant at 5 μM) is “resensitized all three mcr-1 containing bacterial strains to colistin”. For the same compound, the “colistin MIC with adjuvant, all three mcr-1 strains” value in data set [8] (adjuvant at 15 μM, susceptibility breakpoint 2 μg/mL) was “lowered the colistin MIC to the susceptibility breakpoint”. In the data set on red blood cells, the “toxicity to red blood cells” value was “generally non-toxic”. For the same compound, the “fold reduction of colistin MIC” value in the data set with K. pneumoniae B9 (adjuvant at 5 μM, a chromosomally resistant K. pneumoniae strain (MIC 512 to 0.5 μg/mL)) is on record as 1024 fold; with K. pneumoniae B9 (adjuvant at 10 μM, K. pneumoniae B9) it was over 2000 fold; in the data set with A. baumannii 4106 [5] (adjuvant at 10 μM) it was over 2000 fold. For the same compound, the “resensitization to breakpoint colistin levels, chromosomally resistant strains” value in data set [9] (adjuvant at 7.5 μM) is “resensitized three out of four chromosomally resistant strains; also recorded: resensitized three out of the four strains to breakpoint colistin levels”. Besides, the colistin MIC with adjuvant, all four chromosomally colistin resistant strains (CLSI breakpoint) in data set [9] (adjuvant at 20 μM) was under 2 µg/mL. Further, in data set [10], the “colistin sensitization activity in absence and presence of Tween 80” value is “equipotent colistin sensitization activity in the absence and presence of Tween 80”. Also, the “toxicity to the 4T1 cell line” value in the data set on 4T1 cells is reported as “generally non-toxic”. Moreover, the “CT50, Compound + colistin” value with 4T1 cells (4T1 cells, 18 h, with 1 μg/mL colistin, concentration giving 50% cell viability) stood at 64.9 µM. Besides, the “CT50, Compound alone” value in the data set with 4T1 cells (4T1 cells, 18 h, without colistin, concentration giving 50% cell viability) was 94.1 µM. In [6] (50 mg/kg compound paired with 50 mg/kg colistin), the “survival of inoculated worms after 4 days, combination with colistin” value was 47%. Moreover, the “survival … monotherapy” value in data set [6] (50 mg/kg) was 0%.

These data come from patent publication US20230131376A1, “ADJUVANT-ANTIBIOTIC COMBINATION AGAINST GRAM-NEGATIVE BACTERIA” (University of Notre Dame du Lac, priority 2020, published 2023).
